Results as given in ChEMBL document CHEMBL5634084, “Design and optimization of selective and potent CDK9 inhibitors with flavonoid scaffold for the treatment of acute myeloid leukemia” (Eur J Med Chem, 2023).
Converted amounts (≈) assume the structure as drawn. The source made the active and inactive calls. The rule behind the calls is not given here.

Columns and labels:
MV4-11 [1] = experiment: Induction of apoptosis in human MV4-11 cells assessed as late apoptotic cells at 4 uM incubated for 24 hrs by AnnexinV-FITC/PI staining based flow cytometry (reference value: 5.21%); type: functional
MV4-11 [2] = experiment: Induction of apoptosis in human MV4-11 cells assessed as necrotic cells at 0.1 uM incubated for 24 hrs by AnnexinV-FITC/PI staining based flow cytometry (reference value: 0%); type: functional
MV4-11 [3] = experiment: Induction of cell cycle arrest in human MV4-11 cells assessed as accumulation of cells at G0/G1 phase at 0.1 uM incubated fo 36 hrs by propidium iodide staining based flow cytometry (reference value: 64%); type: functional
MCF7 = experiment: Antiproliferative activity against human MCF7 cells assessed as reduction in cell viability measured after 72 hrs; type: functional, cell-based; details: MCF7, 72 h
[4] = molecular target: Myosin-IIIb (Homo sapiens) (UniProt Q8WXR4); experiment: Inhibition of wild type partial length human MYO3B (1 to 357 residues) expressed in bacterial expression system at 1 uM by KINOMEscan analysis
[5] = Cytotoxicity against human HEK293 cells assessed as reduction in cell viability measured after 72 hrs; type: toxicity, cell-based
[6] = Solubility of the compound in water at pH 7.4; type: physicochemical
MV4-11 [7] = experiment: Induction of apoptosis in human MV4-11 cells assessed as early apoptotic cells at 4 uM incubated for 24 hrs by AnnexinV-FITC/PI staining based flow cytometry (reference value: 1.42%); type: functional
MV4-11 [8] = experiment: Induction of cell cycle arrest in human MV4-11 cells assessed as accumulation of cells at G0/G1 phase at 0.8 uM incubated fo 36 hrs by propidium iodide staining based flow cytometry (reference value: 64%); type: functional
[9] = molecular target: Cyclin-dependent kinase 9 (Homo sapiens) (UniProt P50750); experiment: Inhibition of CDK9 in human MV4-11 cells assessed as reduction in c-Myc mRNA expression at 0.1 to 2 uM incubated for 12 hrs by qPCR analysis; type: cell-based; details: dose 0.1-2 µM
MV4-11 [10] = experiment: Induction of cell cycle arrest in human MV4-11 cells assessed as accumulation of cells at G2/M phase at 0.8 uM incubated fo 36 hrs by propidium iodide staining based flow cytometry (reference value: 9.5%); type: functional
[11] = molecular target: Cyclin-dependent kinase 9 (Homo sapiens) (UniProt P50750); experiment: Inhibition of CDK9 in human MV4-11 cells assessed as reduction in c-Myc protein expression incubated for 12 hrs by western blot analysis; type: cell-based; details: dose 0.1-4 µM
[12] = molecular target: CDK2/Cyclin A2 (Homo sapiens) (UniProt P24941+P20248); experiment: Inhibition of CDK2/CyclinA2 (unknown origin) at 100 nM by ADP-Glo assay relative to control; type: protein-complex assay
MV4-11 [13] = experiment: Induction of apoptosis in human MV4-11 cells assessed as viable cells at 0.1 uM incubated for 24 hrs by AnnexinV-FITC/PI staining based flow cytometry (reference value: 93.4%); type: functional; details: read-out: Activity
[14] = molecular target: Mitogen-activated protein kinase kinase kinase kinase 2 (Homo sapiens) (UniProt Q12851); experiment: Inhibition of wild type partial length human MAP4K2 (1 to 318 residues) expressed in mammalian expression system at 1 uM by KINOMEscan analysis
CDK6/cyclin D1 = CDK6/cyclin D1 (Homo sapiens, UniProt Q00534); experiment: Inhibition of CDK6/CyclinD1 (unknown origin) by ADP-Glo assay; type: protein-complex assay
MV4-11 [15] = experiment: Induction of apoptosis in human MV4-11 cells assessed as early apoptotic cells at 2 uM incubated for 24 hrs by AnnexinV-FITC/PI staining based flow cytometry (reference value: 1.42%); type: functional
MV4-11 [16] = experiment: Antiproliferative activity against human MV4-11 cells assessed as reduction in cell viability measured after 72 hrs; type: functional, cell-based; details: MV4-11, 72 h
MV4-11 [17] = experiment: Induction of cell cycle arrest in human MV4-11 cells assessed as accumulation of cells at S phase at 0.8 uM incubated fo 36 hrs by propidium iodide staining based flow cytometry (reference value: 26.5%); type: functional
[18] = molecular target: Cyclin-dependent kinase 9 (Homo sapiens) (UniProt P50750); experiment: Inhibition of CDK9 in human MV4-11 cells assessed as reduction in Mcl-1 mRNA expression at 0.1 to 2 uM incubated for 12 hrs by qPCR analysis; type: cell-based; details: dose 0.1-2 µM
[19] = Metabolic stability of the compound in rat liver microsomes at 10 uM measured for 60 mins in presence of NADPH by LC-MS/MS analysis; type: ADME, Microsome; details: 1 h
MV4-11 [20] = experiment: Induction of apoptosis in human MV4-11 cells assessed as late apoptotic cells at 0.5 uM incubated for 24 hrs by AnnexinV-FITC/PI staining based flow cytometry (reference value: 5.21%); type: functional
[21] = molecular target: MAP kinase-interacting serine/threonine-protein kinase 2 (Homo sapiens) (UniProt Q9HBH9); experiment: Inhibition of wild type partial length human MKNK2 (63 to 388 residues) expressed in mammalian expression system at 1 uM by KINOMEscan analysis
MV4-11 [22] = experiment: Induction of cell cycle arrest in human MV4-11 cells assessed as accumulation of cells at G0/G1 phase at 0.2 uM incubated fo 36 hrs by propidium iodide staining based flow cytometry (reference value: 64%); type: functional
[23] = molecular target: Mitogen-activated protein kinase kinase kinase 7 (Homo sapiens) (UniProt O43318); experiment: Inhibition of wild type partial length human TAK1 (1 to 303 residues) expressed in mammalian expression system at 1 uM by KINOMEscan analysis
CDK7/Cyclin H/MNAT1 = CDK7/Cyclin H/MNAT1 (Homo sapiens, UniProt P50613); experiment: Inhibition of CDK7/Cyclin H/MAT1 (unknown origin) by ADP-Glo assay; type: protein-complex assay
[24] = Metabolic stability of the compound in mouse liver microsomes at 10 uM measured for 60 mins in presence of NADPH by LC-MS/MS analysis; type: ADME, Microsome; details: 1 h
MV4-11 [25] = experiment: Induction of apoptosis in human MV4-11 cells assessed as viable cells at 2 uM incubated for 24 hrs by AnnexinV-FITC/PI staining based flow cytometry (reference value: 93.4%); type: functional; details: read-out: Activity
MV4-11 [26] = experiment: Induction of apoptosis in human MV4-11 cells assessed as viable cells at 0.5 uM incubated for 24 hrs by AnnexinV-FITC/PI staining based flow cytometry (reference value: 93.4%); type: functional; details: read-out: Activity
[27] = Cytotoxicity against human L02 cells assessed as reduction in cell viability measured after 72 hrs; type: toxicity, cell-based
[28] = molecular target: Cyclin-dependent kinase 4/cyclin D1 (Homo sapiens, UniProt P11802); experiment: Inhibition of CDK4/CyclinD1 (unknown origin) by ADP-Glo assay; type: protein-complex assay
A549 = experiment: Antiproliferative activity against human A549 cells assessed as reduction in cell viability measured after 72 hrs; type: functional, cell-based; details: A549, 72 h
MV4-11 [29] = experiment: Induction of apoptosis in human MV4-11 cells assessed as early apoptotic cells at 0.1 uM incubated for 24 hrs by AnnexinV-FITC/PI staining based flow cytometry (reference value: 1.42%); type: functional
[30] = molecular target: Dual specificity mitogen-activated protein kinase kinase 5 (Homo sapiens) (UniProt Q13163); experiment: Inhibition of wild type partial length human MEK5 (98 to 448 residues) expressed in mammalian expression system at 1 uM by KINOMEscan analysis
MV4-11 [31] = experiment: Induction of apoptosis in human MV4-11 cells assessed as early apoptotic cells at 1 uM incubated for 24 hrs by AnnexinV-FITC/PI staining based flow cytometry (reference value: 1.42%); type: functional

Sequence of Cyclin-dependent kinase 9 (Homo sapiens) (P50750 whole entry): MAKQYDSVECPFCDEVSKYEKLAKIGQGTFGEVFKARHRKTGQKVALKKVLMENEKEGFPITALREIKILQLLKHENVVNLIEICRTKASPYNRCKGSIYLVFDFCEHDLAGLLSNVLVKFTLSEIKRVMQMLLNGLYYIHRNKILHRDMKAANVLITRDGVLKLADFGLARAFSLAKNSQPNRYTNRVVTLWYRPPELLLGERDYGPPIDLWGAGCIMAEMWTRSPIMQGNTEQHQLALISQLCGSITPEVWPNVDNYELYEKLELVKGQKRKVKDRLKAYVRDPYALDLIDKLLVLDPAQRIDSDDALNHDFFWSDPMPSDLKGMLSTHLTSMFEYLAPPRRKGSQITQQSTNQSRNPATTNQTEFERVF
Sequence of Mitogen-activated protein kinase kinase kinase kinase 2 (Homo sapiens) (Q12851 whole entry, the tested form may be a part): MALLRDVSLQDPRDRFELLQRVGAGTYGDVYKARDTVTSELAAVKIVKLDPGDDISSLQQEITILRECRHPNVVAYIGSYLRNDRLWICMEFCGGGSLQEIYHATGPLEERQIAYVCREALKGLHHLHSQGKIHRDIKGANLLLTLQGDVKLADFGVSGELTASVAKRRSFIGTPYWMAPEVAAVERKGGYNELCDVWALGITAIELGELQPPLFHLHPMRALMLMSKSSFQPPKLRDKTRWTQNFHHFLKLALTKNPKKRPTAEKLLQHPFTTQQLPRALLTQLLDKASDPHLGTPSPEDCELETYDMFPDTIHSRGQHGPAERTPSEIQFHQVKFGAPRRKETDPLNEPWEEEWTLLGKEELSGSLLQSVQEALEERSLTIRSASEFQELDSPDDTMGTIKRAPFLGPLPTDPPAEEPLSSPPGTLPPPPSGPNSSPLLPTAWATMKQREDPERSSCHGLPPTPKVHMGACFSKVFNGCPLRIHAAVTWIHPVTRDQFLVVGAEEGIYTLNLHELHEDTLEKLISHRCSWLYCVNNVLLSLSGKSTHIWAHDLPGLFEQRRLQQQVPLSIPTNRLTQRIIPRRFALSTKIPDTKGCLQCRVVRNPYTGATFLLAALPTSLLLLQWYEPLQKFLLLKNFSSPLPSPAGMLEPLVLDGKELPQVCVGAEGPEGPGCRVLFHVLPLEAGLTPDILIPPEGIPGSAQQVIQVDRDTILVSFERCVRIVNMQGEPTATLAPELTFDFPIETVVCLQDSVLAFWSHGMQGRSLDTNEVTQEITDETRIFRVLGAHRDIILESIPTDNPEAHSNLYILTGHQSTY
Sequence of CDK6/cyclin D1 (P24385 whole entry): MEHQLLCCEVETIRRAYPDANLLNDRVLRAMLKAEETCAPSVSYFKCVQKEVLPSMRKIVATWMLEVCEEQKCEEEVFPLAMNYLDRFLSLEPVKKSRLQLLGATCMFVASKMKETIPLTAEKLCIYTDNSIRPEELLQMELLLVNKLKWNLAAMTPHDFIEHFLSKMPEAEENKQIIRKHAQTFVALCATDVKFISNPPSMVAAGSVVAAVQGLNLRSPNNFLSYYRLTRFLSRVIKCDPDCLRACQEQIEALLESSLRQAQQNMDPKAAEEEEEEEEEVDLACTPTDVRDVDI
Sequence of CDK6/cyclin D1 (Q00534 whole entry): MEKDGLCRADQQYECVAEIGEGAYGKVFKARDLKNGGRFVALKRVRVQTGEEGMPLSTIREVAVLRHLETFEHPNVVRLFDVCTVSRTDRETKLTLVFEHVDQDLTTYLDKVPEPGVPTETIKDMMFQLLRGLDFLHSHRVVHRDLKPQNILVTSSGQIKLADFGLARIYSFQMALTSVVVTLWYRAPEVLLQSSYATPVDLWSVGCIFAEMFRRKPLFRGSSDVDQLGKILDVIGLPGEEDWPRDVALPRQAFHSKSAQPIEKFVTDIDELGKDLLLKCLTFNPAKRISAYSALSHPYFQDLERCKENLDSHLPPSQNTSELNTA
Sequence of CDK7/Cyclin H/MNAT1 (P51946 whole entry): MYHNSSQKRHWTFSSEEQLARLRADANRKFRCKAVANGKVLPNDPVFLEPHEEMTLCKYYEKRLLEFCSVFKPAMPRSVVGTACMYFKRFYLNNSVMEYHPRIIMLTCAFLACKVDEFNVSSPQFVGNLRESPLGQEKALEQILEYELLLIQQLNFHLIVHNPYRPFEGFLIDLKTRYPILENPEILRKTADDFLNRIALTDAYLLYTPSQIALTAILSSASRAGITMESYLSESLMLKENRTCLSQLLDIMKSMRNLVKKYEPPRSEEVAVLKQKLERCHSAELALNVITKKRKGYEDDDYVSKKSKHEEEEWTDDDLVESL
Sequence of CDK7/Cyclin H/MNAT1 (P50613 whole entry): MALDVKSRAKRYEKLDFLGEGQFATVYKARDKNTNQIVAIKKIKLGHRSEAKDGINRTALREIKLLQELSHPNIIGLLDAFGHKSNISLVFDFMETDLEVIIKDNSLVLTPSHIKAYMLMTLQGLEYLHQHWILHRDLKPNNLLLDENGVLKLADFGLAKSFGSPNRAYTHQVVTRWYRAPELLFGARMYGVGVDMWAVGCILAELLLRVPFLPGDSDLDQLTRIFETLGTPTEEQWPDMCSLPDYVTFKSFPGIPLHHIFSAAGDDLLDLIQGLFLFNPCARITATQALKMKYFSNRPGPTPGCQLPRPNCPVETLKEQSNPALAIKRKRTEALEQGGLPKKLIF
Sequence of CDK7/Cyclin H/MNAT1 (P51948 whole entry, further chain): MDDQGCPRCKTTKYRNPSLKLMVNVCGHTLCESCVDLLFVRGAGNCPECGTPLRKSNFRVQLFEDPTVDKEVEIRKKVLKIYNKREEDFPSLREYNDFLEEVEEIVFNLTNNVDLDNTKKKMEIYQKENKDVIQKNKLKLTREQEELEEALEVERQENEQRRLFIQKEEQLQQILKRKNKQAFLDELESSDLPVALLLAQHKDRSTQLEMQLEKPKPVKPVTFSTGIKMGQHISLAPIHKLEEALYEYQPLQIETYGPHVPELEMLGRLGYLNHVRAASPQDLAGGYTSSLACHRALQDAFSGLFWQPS
Sequence of Mitogen-activated protein kinase kinase kinase 7 (Homo sapiens) (O43318 whole entry, the tested form may be a part): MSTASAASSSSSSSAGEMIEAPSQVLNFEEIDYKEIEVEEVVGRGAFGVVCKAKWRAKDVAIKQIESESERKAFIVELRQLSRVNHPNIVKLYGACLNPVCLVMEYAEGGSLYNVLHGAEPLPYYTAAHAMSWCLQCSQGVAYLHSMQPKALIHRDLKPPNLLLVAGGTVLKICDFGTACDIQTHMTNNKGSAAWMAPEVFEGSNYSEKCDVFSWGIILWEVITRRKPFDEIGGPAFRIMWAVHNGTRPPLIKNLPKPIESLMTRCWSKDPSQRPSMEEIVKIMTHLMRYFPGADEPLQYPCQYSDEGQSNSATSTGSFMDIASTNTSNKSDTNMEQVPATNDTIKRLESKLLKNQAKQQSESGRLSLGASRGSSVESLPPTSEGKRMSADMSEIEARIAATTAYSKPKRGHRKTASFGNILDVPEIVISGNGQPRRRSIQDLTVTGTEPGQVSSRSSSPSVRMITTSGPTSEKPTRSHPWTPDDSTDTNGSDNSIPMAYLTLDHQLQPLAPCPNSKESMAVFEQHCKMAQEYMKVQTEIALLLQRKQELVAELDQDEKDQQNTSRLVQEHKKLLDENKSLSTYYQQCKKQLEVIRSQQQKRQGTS
Sequence of Cyclin-dependent kinase 4/cyclin D1 (P11802 whole entry): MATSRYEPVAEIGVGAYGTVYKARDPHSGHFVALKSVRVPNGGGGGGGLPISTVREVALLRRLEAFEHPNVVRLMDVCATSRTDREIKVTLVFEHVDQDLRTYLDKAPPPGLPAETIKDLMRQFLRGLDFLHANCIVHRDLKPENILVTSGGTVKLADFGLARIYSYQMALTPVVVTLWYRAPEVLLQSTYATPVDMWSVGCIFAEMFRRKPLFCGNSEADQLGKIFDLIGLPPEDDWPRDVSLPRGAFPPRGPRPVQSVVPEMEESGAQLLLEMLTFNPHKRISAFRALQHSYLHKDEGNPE
Sequence of Cyclin-dependent kinase 4/cyclin D1 (P24385 whole entry, further chain): as the sequence (P24385 whole entry) above
Sequence of MAP kinase-interacting serine/threonine-protein kinase 2 (Homo sapiens) (Q9HBH9 whole entry, looked up, the tested form may be a part): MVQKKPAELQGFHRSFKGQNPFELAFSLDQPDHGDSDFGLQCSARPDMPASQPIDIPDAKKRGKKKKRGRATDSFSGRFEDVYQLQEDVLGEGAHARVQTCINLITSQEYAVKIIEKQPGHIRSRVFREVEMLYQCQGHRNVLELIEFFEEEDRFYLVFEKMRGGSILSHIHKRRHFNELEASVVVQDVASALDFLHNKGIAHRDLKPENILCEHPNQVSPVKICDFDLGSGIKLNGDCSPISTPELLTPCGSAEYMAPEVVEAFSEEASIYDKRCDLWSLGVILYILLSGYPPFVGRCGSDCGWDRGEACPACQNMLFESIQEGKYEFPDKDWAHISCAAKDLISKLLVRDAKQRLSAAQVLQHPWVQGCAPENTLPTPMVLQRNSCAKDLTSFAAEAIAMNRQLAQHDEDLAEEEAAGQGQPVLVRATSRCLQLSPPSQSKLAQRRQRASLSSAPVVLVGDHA
Sequence of Dual specificity mitogen-activated protein kinase kinase 5 (Homo sapiens) (Q13163 whole entry, the tested form may be a part): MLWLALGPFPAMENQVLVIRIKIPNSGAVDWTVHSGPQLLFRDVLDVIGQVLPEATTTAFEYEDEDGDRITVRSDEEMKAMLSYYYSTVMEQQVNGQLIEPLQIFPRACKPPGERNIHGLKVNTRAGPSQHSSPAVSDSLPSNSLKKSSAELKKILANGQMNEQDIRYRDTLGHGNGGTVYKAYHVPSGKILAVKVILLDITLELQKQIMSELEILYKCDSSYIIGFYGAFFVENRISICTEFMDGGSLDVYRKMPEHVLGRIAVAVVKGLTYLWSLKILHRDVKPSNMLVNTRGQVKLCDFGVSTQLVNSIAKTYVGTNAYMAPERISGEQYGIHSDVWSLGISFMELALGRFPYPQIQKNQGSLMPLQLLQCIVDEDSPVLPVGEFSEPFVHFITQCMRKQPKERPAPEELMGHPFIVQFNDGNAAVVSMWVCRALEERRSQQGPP

## COc1cc(O)c2c(=O)cc(-c3ccc(N4CCN(C)CC4)cc3)oc2c1C1=CCN(C)CC1
MV4-11 [1]
  Activity: 21.3%
MV4-11 [2]
  Activity: 0.02%
MV4-11 [3]
  Activity: 70.5%
MCF7
  IC50: 140 nM
[4]
  inhibition: 0%
[5]
  IC50 at 72 h: 10700 nM
[6]
  solubility: 120 µg/mL (≈ 260 µM)
MV4-11 [7]
  Activity: 70.3%
MV4-11 [8]
  Activity: 84.2%
[9]
  inhibition: Active
MV4-11 [10]
  Activity: 5%
[11]
  inhibition: Dose-Dependent Effect
[12]
  inhibition: 16.7%
MV4-11 [13]
  viability at 0.1 µM: 91.5%
[14]
  inhibition: 9.9%
CDK6/cyclin D1
  IC50: 589 nM
MV4-11 [15]
  Activity: 67%
MV4-11 [16]
  IC50: 60 nM
MV4-11 [17]
  Activity: 10.8%
[18]
  inhibition: Active
[19]
  Stability: Stable
MV4-11 [20]
  Activity: 10.2%
[21]
  inhibition: 1.6%
MV4-11 [22]
  Activity: 73.9%
[23]
  inhibition: 9.5%
CDK7/Cyclin H/MNAT1
  IC50: 536 nM
[24]
  Stability: Stable
MV4-11 [25]
  viability at 2 µM: 3.12%
MV4-11 [26]
  viability at 0.5 µM: 87.8%
[27]
  IC50 at 72 h: 10600 nM
[28]
  IC50: 53 nM
A549
  IC50: 700 nM
MV4-11 [29]
  Activity: 1.46%
[30]
  inhibition: 0%
MV4-11 [31]
  Activity: 9.95%
